Reference: ChEMBL document CHEMBL1154363, “Heterocyclic 1,7-disubstituted indole sulfonamides are potent and selective human EP3 receptor antagonists” (Bioorg Med Chem Lett, 2009)
pIC50: −log10 of the molar value. Values belong to the compound of their own block, whether it stands above or below them. Activity calls are given as the source filed them. The calls are words filed in the database; no cut-off is given here.

What was measured:
[1] = biological target: T1, Prostaglandin E2 receptor EP3 subtype (Homo sapiens) (UniProt P43115); assay: Antagonist activity at human EP3 receptor at 0.1 uM by FLIPR assay; type: functional; design: scale not given: the % may be the effect or the level left
T1 sequence (whole entry): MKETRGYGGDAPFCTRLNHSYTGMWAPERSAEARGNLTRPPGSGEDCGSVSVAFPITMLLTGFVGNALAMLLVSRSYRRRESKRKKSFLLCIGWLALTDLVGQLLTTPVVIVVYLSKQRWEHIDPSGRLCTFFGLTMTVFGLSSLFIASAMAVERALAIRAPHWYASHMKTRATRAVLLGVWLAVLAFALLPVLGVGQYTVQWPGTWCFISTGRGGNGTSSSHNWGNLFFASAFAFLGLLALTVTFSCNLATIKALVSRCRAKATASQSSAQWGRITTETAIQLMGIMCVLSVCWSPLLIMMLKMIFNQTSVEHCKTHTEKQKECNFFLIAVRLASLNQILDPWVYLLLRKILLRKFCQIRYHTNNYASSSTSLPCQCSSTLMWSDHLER

[2] = biological target: T1, Prostaglandin E2 receptor EP3 subtype (Homo sapiens); assay: Antagonist activity at human EP3 receptor at 10 uM by FLIPR assay; type: functional; design: scale not given: the % may be the effect or the level left
[3] = biological target: T2, Prostaglandin F2-alpha receptor (Homo sapiens, UniProt P43088); assay: Binding affinity to human FP receptor by radioligand displacement assay
[4] = Metabolic stability in human liver microsomes assessed as compound remaining after 30 mins; type: ADME, Microsome; details: read-out: Stability
[5] = biological target: T3, Prostaglandin E2 receptor EP1 subtype (Homo sapiens, UniProt P34995); assay: Binding affinity to human EP1 receptor by radioligand displacement assay
T3 sequence (P34995 whole entry): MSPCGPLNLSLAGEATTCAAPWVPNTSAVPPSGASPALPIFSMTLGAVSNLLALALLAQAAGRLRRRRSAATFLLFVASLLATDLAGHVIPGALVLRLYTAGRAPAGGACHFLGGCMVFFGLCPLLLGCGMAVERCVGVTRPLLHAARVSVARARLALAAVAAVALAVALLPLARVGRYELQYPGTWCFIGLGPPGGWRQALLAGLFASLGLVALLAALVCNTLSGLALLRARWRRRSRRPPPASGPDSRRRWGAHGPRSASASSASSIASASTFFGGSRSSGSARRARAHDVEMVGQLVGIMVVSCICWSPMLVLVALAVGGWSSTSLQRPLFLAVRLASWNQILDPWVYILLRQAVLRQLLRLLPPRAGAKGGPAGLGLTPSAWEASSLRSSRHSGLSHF

[6] = biological target: T1, Prostaglandin E2 receptor EP3 subtype (Homo sapiens); assay: Displacement of [3H]PGE2 from human EP3 receptor in presence of 10% human serum
[7] = Protein binding in plasma by HSA-HPLC method; type: ADME, cell-free; details: human, read-out: PB (converted)
[8] = biological target: T4, Prostaglandin E2 receptor EP3 subtype (Homo sapiens, UniProt P43115); assay: Displacement of [3H]PGE2 from human EP3 receptor
T4 sequence (P43115 whole entry): T1 sequence (whole entry)

Platelet [9] = assay: Inhibition of PGE2/collagen-induced platelet aggregation human platelets rich plasma; type: functional
[10] = biological target: Prostaglandin E2 receptor EP2 subtype (Homo sapiens, UniProt P43116); assay: Binding affinity to human EP2 receptor by radioligand displacement assay
[11] = Metabolic stability in rat liver microsomes assessed as compound remaining after 30 mins; type: ADME, Microsome; details: read-out: Stability
[12] = biological target: T5, Prostaglandin E2 receptor EP4 subtype (Homo sapiens, UniProt P35408); assay: Binding affinity to human EP4 receptor by radioligand displacement assay
Prostacyclin receptor = Prostacyclin receptor (Homo sapiens, UniProt P43119); assay: Binding affinity to human IP receptor by radioligand displacement assay
Platelet [13] = assay: Inhibition of PGE2/collagen-induced platelet aggregation rat platelets rich plasma; type: functional
[14] = biological target: T5, Prostaglandin E2 receptor EP4 subtype; assay: Activity at EP4 receptor at 0.1 uM by FLIPR assay
[15] = biological target: T6, Thromboxane A2 receptor (Homo sapiens) (UniProt P21731); assay: Activity at TP receptor at 1 uM by FLIPR assay
T6 sequence (whole entry): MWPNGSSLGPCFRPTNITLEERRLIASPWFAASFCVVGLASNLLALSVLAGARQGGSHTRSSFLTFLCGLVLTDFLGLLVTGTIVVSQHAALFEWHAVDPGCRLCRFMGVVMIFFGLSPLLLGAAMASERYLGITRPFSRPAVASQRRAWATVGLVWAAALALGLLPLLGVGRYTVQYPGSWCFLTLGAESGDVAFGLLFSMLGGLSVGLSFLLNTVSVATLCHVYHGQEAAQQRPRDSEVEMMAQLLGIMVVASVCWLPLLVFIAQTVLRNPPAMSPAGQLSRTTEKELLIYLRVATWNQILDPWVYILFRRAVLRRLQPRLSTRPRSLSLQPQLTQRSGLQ

[16] = biological target: T5, Prostaglandin E2 receptor EP4 subtype; assay: Activity at EP4 receptor at 10 uM by FLIPR assay
[17] = biological target: T2, Prostaglandin F2-alpha receptor; assay: Activity at FP receptor at 0.1 uM by FLIPR assay
[18] = biological target: T7, Prostaglandin E2 receptor EP1 subtype (Homo sapiens) (UniProt P34995); assay: Activity at EP1 receptor at 10 uM by FLIPR assay
T7 sequence (whole entry): T3 sequence (P34995 whole entry)

[19] = biological target: T2, Prostaglandin F2-alpha receptor; assay: Activity at FP receptor at 10 uM by FLIPR assay
[20] = biological target: T2, Prostaglandin F2-alpha receptor; assay: Activity at FP receptor at 1 uM by FLIPR assay
[21] = biological target: T7, Prostaglandin E2 receptor EP1 subtype (Homo sapiens); assay: Activity at EP1 receptor at 1 uM by FLIPR assay
[22] = biological target: T5, Prostaglandin E2 receptor EP4 subtype; assay: Activity at EP4 receptor at 1 uM by FLIPR assay
[23] = biological target: T7, Prostaglandin E2 receptor EP1 subtype (Homo sapiens); assay: Activity at EP1 receptor at 0.1 uM by FLIPR assay
[24] = biological target: T6, Thromboxane A2 receptor (Homo sapiens); assay: Activity at TP receptor at 0.1 uM by FLIPR assay
[25] = biological target: T6, Thromboxane A2 receptor (Homo sapiens); assay: Activity at TP receptor at 10 uM by FLIPR assay
[26] = biological target: T1, Prostaglandin E2 receptor EP3 subtype (Homo sapiens); assay: Full displacement of [3H]PGE2 from human EP3 receptor at 20 uM
[27] = biological target: T1, Prostaglandin E2 receptor EP3 subtype (Homo sapiens); assay: Antagonist activity at human EP3 receptor at 1 uM by FLIPR assay; type: functional; design: scale not given: the % may be the effect or the level left

T2 sequence (P43088 whole entry): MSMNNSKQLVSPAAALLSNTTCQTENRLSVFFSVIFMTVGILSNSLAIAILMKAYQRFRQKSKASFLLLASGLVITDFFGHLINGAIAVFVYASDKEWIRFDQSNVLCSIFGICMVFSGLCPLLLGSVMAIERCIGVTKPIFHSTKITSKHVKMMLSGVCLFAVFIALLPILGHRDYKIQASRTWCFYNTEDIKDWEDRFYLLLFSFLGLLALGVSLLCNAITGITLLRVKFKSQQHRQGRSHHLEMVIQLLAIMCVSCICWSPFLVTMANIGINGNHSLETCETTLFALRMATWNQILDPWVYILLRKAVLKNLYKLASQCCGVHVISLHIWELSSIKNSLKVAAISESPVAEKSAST
T5 sequence (P35408 whole entry): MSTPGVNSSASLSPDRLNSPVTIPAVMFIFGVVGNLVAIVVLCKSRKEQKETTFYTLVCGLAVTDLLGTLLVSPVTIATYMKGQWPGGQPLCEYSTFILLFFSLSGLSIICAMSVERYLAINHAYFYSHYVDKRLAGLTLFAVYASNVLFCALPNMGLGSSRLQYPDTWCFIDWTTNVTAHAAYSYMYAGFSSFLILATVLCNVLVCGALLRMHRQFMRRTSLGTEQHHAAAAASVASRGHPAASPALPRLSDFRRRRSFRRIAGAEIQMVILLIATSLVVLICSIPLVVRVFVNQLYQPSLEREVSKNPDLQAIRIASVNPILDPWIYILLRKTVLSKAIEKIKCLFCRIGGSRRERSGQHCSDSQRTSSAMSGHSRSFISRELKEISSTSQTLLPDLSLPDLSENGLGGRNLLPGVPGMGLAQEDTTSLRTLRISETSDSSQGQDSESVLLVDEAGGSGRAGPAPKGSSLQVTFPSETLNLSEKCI
Prostaglandin E2 receptor EP2 subtype, sequence (P43116 whole entry): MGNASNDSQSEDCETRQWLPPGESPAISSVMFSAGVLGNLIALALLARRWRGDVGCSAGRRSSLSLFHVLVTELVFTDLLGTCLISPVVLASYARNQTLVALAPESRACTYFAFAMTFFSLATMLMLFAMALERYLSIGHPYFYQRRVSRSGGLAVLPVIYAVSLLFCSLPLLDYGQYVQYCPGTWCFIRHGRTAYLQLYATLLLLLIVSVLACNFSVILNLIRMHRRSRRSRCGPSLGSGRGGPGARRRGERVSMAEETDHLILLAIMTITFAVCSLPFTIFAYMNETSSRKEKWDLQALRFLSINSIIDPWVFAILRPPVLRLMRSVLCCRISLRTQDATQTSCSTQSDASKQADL
Prostacyclin receptor, sequence (P43119 whole entry): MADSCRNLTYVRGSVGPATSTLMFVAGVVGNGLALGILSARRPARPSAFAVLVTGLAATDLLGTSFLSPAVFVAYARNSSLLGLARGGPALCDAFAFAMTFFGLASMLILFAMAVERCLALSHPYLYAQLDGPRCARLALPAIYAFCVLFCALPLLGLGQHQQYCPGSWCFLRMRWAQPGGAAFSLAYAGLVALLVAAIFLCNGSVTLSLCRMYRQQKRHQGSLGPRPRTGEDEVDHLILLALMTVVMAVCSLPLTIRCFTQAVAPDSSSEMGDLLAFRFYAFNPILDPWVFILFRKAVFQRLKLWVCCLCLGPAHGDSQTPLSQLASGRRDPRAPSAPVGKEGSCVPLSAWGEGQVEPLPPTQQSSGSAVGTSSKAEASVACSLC

Structure (SMILES): Cc1cn(Cc2ccc3c(c2)OCCO3)c2c(-c3nnc(NS(=O)(=O)c4ccc(F)cc4)o3)cc(F)cc12
Activity [1]: 11%
Activity [2]: 48%

Structure (SMILES): Cc1cn(Cc2ccc(Cl)cc2Cl)c2c(-c3cc(NS(=O)(=O)c4ccc(F)c(F)c4)no3)cc(F)cc12
pIC50 [3]: 6.22
remaining at 0.5 h [4]: 46.8%
pIC50 [5]: < 4.70
fold change (FC) [6]: 12
fraction unbound [7]: 0.016
pIC50 [8]: 9.00
pIC50 (Platelet [9]): 6.11
pIC50 [10]: 4.70
remaining at 0.5 h [11]: 51%
pIC50 [12]: 4.73
pIC50 (Prostacyclin receptor): < 4.70
pIC50 (Platelet [13]): 5.41

Structure (SMILES): COc1cccc(Cn2cc(C)c3cc(F)cc(-c4nnc(NS(=O)(=O)c5ccc(F)cc5)o4)c32)c1
Activity [1]: 62%
Activity [2]: 99%

Structure (SMILES): Cc1cn(Cc2ccc(Cl)cc2Cl)c2c(-c3nnc(NC(=O)c4ccc(Cl)cc4Cl)o3)cc(F)cc12
Activity [26]: inactive
fold change (FC) [6]: 1
pIC50 [8]: 5.88

The remaining lines, values ahead:

remaining at 0.5 h [4]: 72.1%
Activity [14]: -26%
Activity [15]: 0%
Activity [16]: -7%
fold change (FC) [6]: 3.5
fraction unbound [7]: 0.028
Activity [17]: -15%
Activity [18]: 100%
Activity [19]: -1%
Activity [20]: -2%
pIC50 [8]: 8.40
Activity [21]: 16%
Activity [22]: -22%
Activity [23]: -2%
remaining at 0.5 h [11]: 44.8%
Activity [24]: 3%
Activity [25]: 56%
pIC50 (Platelet [13]): 5.54
Structure (SMILES): Cc1cn(Cc2ccc(Cl)cc2Cl)c2c(-c3nnc(NS(=O)(=O)c4ccc(Cl)c(Cl)c4)o3)cc(F)cc12

Activity [1]: 35%
Activity [27]: 99%
Structure (SMILES): COc1ccc(Cn2cc(C)c3cc(F)cc(-c4nnc(NS(=O)(=O)c5ccc(F)c(F)c5)o4)c32)cc1
